Data taken from patent publication US12679878B2, “CRF2 receptor agonists and their use in therapy” (SANOFI, priority 2020, dated 2026).
Starred links: 1 amine or outer side, 2 acyl side, 3 side chain; linkers in the order of their positions; H or OH if unused. Non-standard residues stand in square brackets, D forms with d. Residues, ends and D or L forms follow the SMILES beside them. Groups on a side chain read outwards from the residue. *: point of attachment. C18 diacid = O=C(O)CCCCCCCCCCCCCCCCC(=O)*; γGlu = O=C(O)[C@H](CCC(=O)[*:2])N[*:1]; AEEA = NCCOCCOCC(=O)O; Aib = CC(C)(N)C(=O)O

Test: Effect on blood pressure, telemetry (Example 17)
Format: in vivo
Conditions: Sprague Dawley rats, 0.1 mg/kg SC
Method: The effect of the compounds on blood pressure was determined in telemetry studies in Sprague Dawley rats at a dosage of 0.1 mg/kg SC.
The rats were previously implanted with a telemetry device (DSI, Saint-Paul, USA, HD-S10, HD-S11 or HD S21) and allowed to recover for a minimum period of 2 weeks before treatment with vehicle or the different peptides. Blood pressure (BP) was recorded through a catheter inserted into the abdominal aorta. The device body was placed in the abdomen. At the end of surgery, animals were placed in individual cages until the end of the study.
Pressure signals were recorded for one hour before the treatment (basal period). Thereafter, the subcutaneous administration of the test compound or its vehicle was performed, under continuous recording of the signal over a 48-hour period. Data acquisition was performed using Hem 4.3 acquisition software (Notocord®, Le Pecq, France) connected to the telemetry device. Hemodynamic parameters were recorded during a […] before treatment and every 4-hour period following subcutaneous administration over 48 hours.
Investigated parameters (calculated from BP signal) were Heart Rate (HR) in beats per minute (bpm), Diastolic and Systolic Blood Pressure (DBP) in mmHg, and Mean Blood Pressure (MBP) in mmHg.
Data from Hem were manipulated using Microsoft Excel®. For each parameter, a basal value was determined as the average calculated over a 1-hour period during the pre-treatment sequence, and the values post treatment were calculated over 4-hour periods ([0-4], [4-8], [8-12], [12-16], [16-20], [20-24], [24-28], [32-36], [36-40], [40-44] and [44-48] hours) covering the 48-hour period following administration.
Representative data are presented in Table 15 below, in which “n” represents the number of animals for which individual values were obtained and “Duration” indicates the last time point for which a significant effect on BP was still seen: Table 15

| Structure (SMILES) | Duration (h): last time point for which a significant effect on BP was still seen | Effect on Systolic Pressure % change from baseline 8 h | Effect on Systolic Pressure % change from baseline 24 h |
| --- | --- | --- | --- |
| CC[C@H](C)[C@H](N)C(=O)N[C@H](C(=O)N[C@@H](CC(C)C)C(=O)N[C@@H](CO)C(=O)N[C@@H](CC(C)C)C(=O)N[C@@H](CC(=O)O)C(=O)N[C@@H](C(=O)N1CCC[C@H]1C(=O)N[C@H](C(=O)N[C@@H](CCCCN)C(=O)N[C@@H](CC(C)C)C(=O)N[C@@H](CCCCNC(=O)COCCOCCNC(=O)COCCOCCNC(=O)CC[C@H](NC(=O)CCCCCCCCCCCCCCCCC(=O)O)C(=O)O)C(=O)N[C@@H](CCC(N)=O)C(=O)N[C@H](C(=O)N[C@@H](CC(C)C)C(=O)N[C@@H](CC(C)C)C(=O)N[C@@H](CCCCN)C(=O)N[C@@H](CCC(N)=O)C(=O)N[C@@H](CCC(=O)O)C(=O)N[C@@H](CCCNC(=N)N)C(=O)N[C@@H](CCC(N)=O)C(=O)N[C@@H](CCCCN)C(=O)NC(C)(C)C(=O)N[C@@H](CCC(N)=O)C(=O)N[C@@H](CCCNC(=N)N)C(=O)N[C@@H](CCC(N)=O)C(=O)N[C@@H](CCC(N)=O)C(=O)N[C@@H](C)C(=O)N[C@@H](CCC(=O)O)C(=O)N[C@@H](CCCCN)C(=O)N[C@@H](CC(N)=O)C(=O)N[C@@H](CCCCN)C(=O)N[C@@H](CCC(N)=O)C(=O)N[C@H](C(=O)N[C@@H](CC(C)C)C(=O)N[C@@H](C)C(=O)N[C@@H](CCC(N)=O)C(=O)N[C@H](C(N)=O)C(C)C)[C@@H](C)CC)[C@@H](C)CC)[C@@H](C)CC)C(C)C)C(C)C [SEQ ID NO: 135, IVLSLDvPIKLK*QILLKQERQKAibQRQQAEKNKQILAQV-NH2] (H-IVLSLD[dV]PIKLK([AEEA-AEEA-γGlu-C18 diacid])QILLKQERQK[Aib]QRQQAEKNKQILAQV-NH2) | 30 h | −8.8% | −4.8% |
| CC[C@H](C)[C@H](N)C(=O)N[C@H](C(=O)N[C@@H](CC(C)C)C(=O)N[C@@H](CO)C(=O)N[C@@H](CC(C)C)C(=O)N[C@@H](CC(=O)O)C(=O)N[C@@H](C(=O)N1CCC[C@H]1C(=O)N[C@H](C(=O)N[C@@H](CCCCN)C(=O)N[C@@H](CC(C)C)C(=O)N[C@@H](CCCCNC(=O)COCCOCCNC(=O)COCCOCCNC(=O)CC[C@H](NC(=O)CCCCCCCCCCCCCCCCC(=O)O)C(=O)O)C(=O)N[C@@H](CCC(N)=O)C(=O)N[C@H](C(=O)N[C@@H](CC(C)C)C(=O)N[C@@H](CC(C)C)C(=O)N[C@@H](CCCCN)C(=O)N[C@@H](CCC(N)=O)C(=O)N[C@@H](CCC(=O)O)C(=O)N[C@@H](CCCNC(=N)N)C(=O)N[C@@H](CCC(N)=O)C(=O)N[C@@H](CCCCN)C(=O)N[C@@H](CCCCN)C(=O)N[C@@H](CCC(N)=O)C(=O)N[C@@H](CCCNC(=N)N)C(=O)N[C@@H](CCC(=O)O)C(=O)N[C@@H](CCC(N)=O)C(=O)N[C@@H](C)C(=O)N[C@@H](CCC(=O)O)C(=O)N[C@@H](CCCCN)C(=O)N[C@@H](CC(N)=O)C(=O)N[C@@H](CCCCN)C(=O)N[C@@H](CCC(N)=O)C(=O)N[C@H](C(=O)N[C@@H](CC(C)C)C(=O)N[C@@H](CCC(=O)O)C(=O)N[C@@H](CCC(N)=O)C(=O)N[C@H](C(N)=O)C(C)C)[C@@H](C)CC)[C@@H](C)CC)[C@@H](C)CC)C(C)C)C(C)C [SEQ ID NO: 137] (H-IVLSLD[dV]PIKLK([AEEA-AEEA-γGlu-C18 diacid])QILLKQERQKKQREQAEKNKQILEQV-NH2) | 28 h | −15.9% | −6.5% |
| CC[C@H](C)[C@H](N)C(=O)N[C@H](C(=O)N[C@@H](CC(C)C)C(=O)N[C@@H](CO)C(=O)N[C@@H](CC(C)C)C(=O)N[C@@H](CC(=O)O)C(=O)N[C@@H](C(=O)N1CCC[C@H]1C(=O)N[C@H](C(=O)N[C@@H](CCCCN)C(=O)N[C@@H](CC(C)C)C(=O)N[C@@H](CCCCNC(=O)COCCOCCNC(=O)COCCOCCNC(=O)CC[C@H](NC(=O)CCCCCCCCCCCCCCCCC(=O)O)C(=O)O)C(=O)N[C@@H](CCC(N)=O)C(=O)N[C@H](C(=O)N[C@@H](CC(C)C)C(=O)N[C@@H](CC(C)C)C(=O)N[C@@H](CCCCN)C(=O)N[C@@H](CCC(N)=O)C(=O)N[C@@H](CCC(=O)O)C(=O)N[C@@H](CCCNC(=N)N)C(=O)N[C@@H](CCC(N)=O)C(=O)N[C@@H](CCCCN)C(=O)N[C@@H](CCCCN)C(=O)N[C@@H](CCC(N)=O)C(=O)N[C@@H](CCCNC(=N)N)C(=O)N[C@@H](CCC(=O)O)C(=O)N[C@@H](CCCCN)C(=O)N[C@@H](C)C(=O)N[C@@H](CCC(=O)O)C(=O)N[C@@H](CCCCN)C(=O)N[C@@H](CC(N)=O)C(=O)N[C@@H](CCCCN)C(=O)N[C@@H](CCC(N)=O)C(=O)N[C@H](C(=O)N[C@@H](CC(C)C)C(=O)N[C@@H](C)C(=O)N[C@@H](CCC(N)=O)C(=O)N[C@H](C(N)=O)C(C)C)[C@@H](C)CC)[C@@H](C)CC)[C@@H](C)CC)C(C)C)C(C)C [SEQ ID NO: 138] (H-IVLSLD[dV]PIKLK([AEEA-AEEA-γGlu-C18 diacid])QILLKQERQKKQREKAEKNKQILAQV-NH2) | 30 h | −6.1% | −3.6% |
| CC[C@H](C)[C@H](N)C(=O)N[C@H](C(=O)N[C@@H](CC(C)C)C(=O)N[C@@H](CO)C(=O)N[C@@H](CC(C)C)C(=O)N[C@@H](CC(=O)O)C(=O)N[C@@H](C(=O)N1CCC[C@H]1C(=O)N[C@H](C(=O)N[C@@H](CCCCN)C(=O)N[C@@H](CC(C)C)C(=O)N[C@@H](CCCCNC(=O)COCCOCCNC(=O)COCCOCCNC(=O)CC[C@H](NC(=O)CCCCCCCCCCCCCCCCC(=O)O)C(=O)O)C(=O)N[C@@H](CCC(N)=O)C(=O)N[C@H](C(=O)N[C@@H](CC(C)C)C(=O)N[C@@H](CC(C)C)C(=O)N[C@@H](CCC(=O)O)C(=O)N[C@@H](CCC(N)=O)C(=O)N[C@@H](C)C(=O)N[C@@H](CCCNC(=N)N)C(=O)N[C@@H](CCC(N)=O)C(=O)N[C@@H](CCCCN)C(=O)NC(C)(C)C(=O)N[C@@H](CCC(N)=O)C(=O)N[C@@H](CCCNC(=N)N)C(=O)N[C@@H](C)C(=O)N[C@@H](CCC(N)=O)C(=O)N[C@@H](C)C(=O)N[C@@H](CCC(=O)O)C(=O)N[C@@H](CCCCN)C(=O)N[C@@H](CC(N)=O)C(=O)N[C@@H](CCCCN)C(=O)N[C@@H](CCCNC(=N)N)C(=O)N[C@H](C(=O)N[C@@H](CC(C)C)C(=O)N[C@@H](CCC(=O)O)C(=O)N[C@@H](CCCNC(=N)N)C(=O)N[C@H](C(N)=O)C(C)C)[C@@H](C)CC)[C@@H](C)CC)[C@@H](C)CC)C(C)C)C(C)C [SEQ ID NO: 140, IVLSLDvPIKLK*QILLEQARQKAibQRAQAEKNKRILERV-NH2] (H-IVLSLD[dV]PIKLK([AEEA-AEEA-γGlu-C18 diacid])QILLEQARQK[Aib]QRAQAEKNKRILERV-NH2) | 32 h | −19.9% | −3.0% |
| CC[C@H](C)[C@H](N)C(=O)N[C@H](C(=O)N[C@@H](CC(C)C)C(=O)N[C@@H](CO)C(=O)N[C@@H](CC(C)C)C(=O)N[C@@H](CC(=O)O)C(=O)N[C@@H](C(=O)N1CCC[C@H]1C(=O)N[C@H](C(=O)N[C@@H](CCCCN)C(=O)N[C@@H](CC(C)C)C(=O)N[C@@H](CCCCNC(=O)COCCOCCNC(=O)COCCOCCNC(=O)CC[C@H](NC(=O)CCCCCCCCCCCCCCCCC(=O)O)C(=O)O)C(=O)N[C@@H](CCC(N)=O)C(=O)N[C@H](C(=O)N[C@@H](CC(C)C)C(=O)N[C@@H](CC(C)C)C(=O)N[C@@H](CCCCN)C(=O)N[C@@H](CCC(N)=O)C(=O)N[C@@H](C)C(=O)N[C@@H](CCCNC(=N)N)C(=O)N[C@@H](CCC(N)=O)C(=O)N[C@@H](CCCCN)C(=O)NC(C)(C)C(=O)N[C@@H](CCC(N)=O)C(=O)N[C@@H](CCCNC(=N)N)C(=O)N[C@@H](C)C(=O)N[C@@H](CCC(N)=O)C(=O)N[C@@H](C)C(=O)N[C@@H](CCC(=O)O)C(=O)N[C@@H](CCCCN)C(=O)N[C@@H](CC(N)=O)C(=O)N[C@@H](CCCCN)C(=O)N[C@@H](CCCNC(=N)N)C(=O)N[C@H](C(=O)N[C@@H](CC(C)C)C(=O)N[C@@H](CCC(=O)O)C(=O)N[C@@H](CCCNC(=N)N)C(=O)N[C@H](C(N)=O)C(C)C)[C@@H](C)CC)[C@@H](C)CC)[C@@H](C)CC)C(C)C)C(C)C [SEQ ID NO: 141, IVLSLDvPIKLK*QILLKQARQKAibQRAQAEKNKRILERV-NH2] (H-IVLSLD[dV]PIKLK([AEEA-AEEA-γGlu-C18 diacid])QILLKQARQK[Aib]QRAQAEKNKRILERV-NH2) | 24 h | −5.2% | −4.2% |
